The target in experiment [1] is T1, Beta-1 adrenergic receptor (Homo sapiens, UniProt P08588). Kind of experiment: (§1) Compound was tested for agonist activity against cloned human beta-1 adrenergic receptor. The experiment is classed as functional.
Experiment [2] addresses Beta-3 adrenergic receptor (Homo sapiens, UniProt P13945). Nature of the experiment: Agonist activity against cloned human beta-3 adrenergic receptor. In kind it is functional.
Experiment [3] concerns the target T2, Beta-2 adrenergic receptor (Homo sapiens, UniProt P07550). Nature of the experiment: biochemical.
Target sequence in this assay (P07550 whole entry): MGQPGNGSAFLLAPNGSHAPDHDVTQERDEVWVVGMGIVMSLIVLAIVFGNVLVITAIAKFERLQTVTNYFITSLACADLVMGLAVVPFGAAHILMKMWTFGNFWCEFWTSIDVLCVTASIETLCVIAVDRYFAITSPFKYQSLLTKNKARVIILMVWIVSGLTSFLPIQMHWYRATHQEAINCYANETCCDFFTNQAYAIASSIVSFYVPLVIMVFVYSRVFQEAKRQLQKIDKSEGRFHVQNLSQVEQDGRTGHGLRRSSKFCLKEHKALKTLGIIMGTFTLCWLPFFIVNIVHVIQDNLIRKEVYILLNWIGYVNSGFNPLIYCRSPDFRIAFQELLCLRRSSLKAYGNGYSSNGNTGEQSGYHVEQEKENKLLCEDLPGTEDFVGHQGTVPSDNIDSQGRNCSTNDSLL
Description: Binding affinity against cloned human beta-2 adrenergic receptor from CHO cells using [125I]iodocyanopindolol as the radioligand
Experiment [4] addresses T1, Beta-1 adrenergic receptor. Nature of the experiment: biochemical.
For experiment [5], the target named is T1, Beta-1 adrenergic receptor. The experiment is described as §1.
In experiment [6] the target is T1, Beta-1 adrenergic receptor. Nature of the experiment: Tested for binding affinity against cloned human beta-1 adrenergic receptor from CHO cells using [125I]iodocyanopindolol as the radioligand. The experiment is classed as cell-based.
Experiment [7] addresses T1, Beta-1 adrenergic receptor. Nature of the experiment: Compound was tested for binding affinity against cloned human beta-1 adrenergic receptor from CHO cells using [125I]-iodocyanopindolol as radioligand. The experiment is classed as cell-based.
Experiment [8] addresses T2, Beta-2 adrenergic receptor. Kind of experiment: Compound was tested for agonist activity against cloned human beta-2 adrenergic receptor. The experiment is classed as functional.
Target sequence in this assay (P07550 whole entry): as above
The target in experiment [9] is T2, Beta-2 adrenergic receptor. Kind of experiment: Agonist activity against cloned human beta-2 adrenergic receptor as percent activation of adenyl cyclase activity at a concentration of 1000 nM. The experiment is classed as functional.
Target sequence in this assay (P07550 whole entry, looked up): as the sequence (P07550 whole entry) above
The target of experiment [10] is T2, Beta-2 adrenergic receptor. Kind of experiment: Compound was tested for agonist activity against cloned human beta-2 adrenergic receptor at a concentration of 1000 nM. In kind it is functional.
Target sequence in this assay (P07550 whole entry, looked up): as the sequence (P07550 whole entry) above

The structures appear in SMILES notation. pEC50, pIC50: −log10 of the molar value.

T1 sequence (P08588 whole entry): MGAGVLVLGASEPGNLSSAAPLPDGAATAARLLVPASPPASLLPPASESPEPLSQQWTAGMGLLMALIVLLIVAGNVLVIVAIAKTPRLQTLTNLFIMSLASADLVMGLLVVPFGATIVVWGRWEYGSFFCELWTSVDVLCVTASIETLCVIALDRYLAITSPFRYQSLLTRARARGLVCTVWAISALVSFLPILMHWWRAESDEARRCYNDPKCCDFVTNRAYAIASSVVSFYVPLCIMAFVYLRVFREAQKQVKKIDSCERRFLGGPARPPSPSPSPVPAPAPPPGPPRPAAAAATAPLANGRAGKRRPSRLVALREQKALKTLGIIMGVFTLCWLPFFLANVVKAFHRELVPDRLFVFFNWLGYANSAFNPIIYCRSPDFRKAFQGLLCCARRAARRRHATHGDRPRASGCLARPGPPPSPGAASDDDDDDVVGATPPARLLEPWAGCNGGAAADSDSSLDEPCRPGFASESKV
Beta-3 adrenergic receptor, sequence (P13945 whole entry): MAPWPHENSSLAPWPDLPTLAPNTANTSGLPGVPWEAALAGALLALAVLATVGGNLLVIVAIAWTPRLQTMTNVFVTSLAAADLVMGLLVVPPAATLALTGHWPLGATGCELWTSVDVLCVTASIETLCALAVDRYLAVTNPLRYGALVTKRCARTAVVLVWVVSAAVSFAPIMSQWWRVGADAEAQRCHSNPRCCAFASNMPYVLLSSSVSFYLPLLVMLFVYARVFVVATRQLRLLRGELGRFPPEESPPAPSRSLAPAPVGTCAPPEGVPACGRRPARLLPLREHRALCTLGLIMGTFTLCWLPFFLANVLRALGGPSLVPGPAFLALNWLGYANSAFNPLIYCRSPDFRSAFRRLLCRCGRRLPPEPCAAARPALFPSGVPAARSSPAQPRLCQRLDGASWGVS

For `COc1ccc(CCCNC[C@H](O)COc2ccc(O)cc2)cc1`, the pIC50 in experiment [1] was 7.82; in experiment [3] it was 7.20. In experiment [2], this compound gave a negative logarithm of the EC50 (pEC50) of 6.22.

Consider `C[C@@H](CCc1ccc(O)cc1)NC[C@H](O)COc1ccc(O)cc1`, for which the pEC50 in experiment [2] is 7.92. The pIC50 in experiment [3] is 8.00; in [4], 7.82.

In turn, `COc1ccc(CC[C@H](C)NC[C@@H](O)COc2ccc(O)cc2)cc1` had a pEC50 in [2] of 5.70.

As to `Oc1ccc(CCNC[C@H](O)COc2ccc(O)cc2)cc1`, in experiment [2], the pEC50 was 7.52. The pIC50 in [3] is 6.82; in experiment [4], 6.05.

`O=S(=O)(Nc1ccc(CCNC[C@H](O)COc2ccc(O)cc2)cc1)c1cnc2ccccc2c1`: the negative logarithm of the EC50 (pEC50) in [5] is 6.52. The negative-log IC50 (pIC50) in [6] is 6.30; in experiment [3], 6.62.

In [2], `O=S(=O)(Cc1ccccc1)Nc1ccc(CCNC[C@H](O)COc2ccc(O)cc2)cc1` had a pEC50 of 7.41. The pIC50 in experiment [3] was 7.68; in [4], 7.22.

The compound `O=S(=O)(CCCc1ccccc1)Nc1ccc(CCNC[C@H](O)COc2ccc(O)cc2)cc1` showed a negative logarithm of the EC50 (pEC50) in [2] of 7.04. Also, the values for the pIC50 in experiment [3] and in [4] were 6.89 and 6.00, respectively.

Regarding `COc1ccc(CC[C@H](C)NC[C@H](O)COc2ccc(O)cc2)cc1`, the pIC50 was 8.00 in [7] and 7.70 in experiment [3]. Besides, the pEC50 in [2] was 6.70.

Consider `Nc1ccc(CCNC[C@H](O)COc2ccc(O)cc2)cc1`, for which, in experiment [2], the negative-log EC50 (pEC50) is 6.36. Besides, the pIC50 in experiment [3] was 6.30; in experiment [4] it was 6.00.

As to `O=S(=O)(Nc1ccc(CCNC[C@H](O)COc2ccc(O)cc2)cc1)c1cccc(Cl)c1`, the pEC50 in experiment [2] is 7.82. For the same compound, the negative-log IC50 (pIC50) in experiment [6] was 6.00; in [3], 6.43.

Turning to `COc1ccc(C[C@H](C)NC[C@H](O)COc2ccc(O)cc2)cc1`, the pEC50 in experiment [2] was 6.00.

In experiment [2], `O=S(=O)(Nc1ccc(CCNC[C@H](O)COc2ccc(O)cc2)cc1)c1ccc2ccccc2c1` had a negative-log EC50 (pEC50) of 8.27. For the same compound, the negative-log IC50 (pIC50) in experiment [6] is 5.05; in experiment [3], 6.20.

The compound `COc1ccc(S(=O)(=O)Nc2ccc(CCNC[C@H](O)COc3ccc(O)cc3)cc2)cc1` had a pEC50 in [2] of 8.37. The pIC50 in experiment [6] is 6.85; in experiment [3] it was 6.72.

As for `COc1ccc(CC[C@@H](C)NC[C@@H](O)COc2ccc(O)cc2)cc1`, the pEC50 in [8] is 7.52; in experiment [2], 5.22.

For the compound `COc1ccc(CC[C@@H](C)NC[C@H](O)COc2ccc(O)cc2)cc1`, the pEC50 is 8.30 in experiment [8] and 6.22 in [2].

Consider `CC(=O)Nc1ccc(CCNC[C@H](O)COc2ccc(O)cc2)cc1`, for which, in experiment [2], the negative logarithm of the EC50 (pEC50) is 7.57. Besides, the pIC50 in experiment [3] is 7.96; in [4], 7.60.

`O=S(=O)(Nc1ccc(CCNC[C@H](O)COc2ccc(O)cc2)cc1)c1ccc(Br)cc1`: the pEC50 in experiment [1] is 6.47; in experiment [2], 9.11. In addition, the values for the pIC50 in experiment [3] and in [4] were 6.74 and 6.29, respectively.

The compound `O=C(Nc1ccc(CCNC[C@H](O)COc2ccc(O)cc2)cc1)c1ccccc1` showed a negative-log EC50 (pEC50) in experiment [2] of 7.21. Moreover, the values for the pIC50 in [3] and in [4] were 6.64 and 8.17, respectively.

As for `O=S(=O)(Nc1ccc(CCNC[C@H](O)COc2ccc(O)cc2)cc1)c1ccc(Cl)cc1`, the results for the negative-log EC50 (pEC50) in experiment [1] and in experiment [2] were 6.35 and 8.32, respectively. For the same compound, the pIC50 in experiment [6] was 6.00; in experiment [3] it was 6.55.

`CCCCCS(=O)(=O)Nc1ccc(CCNC[C@H](O)COc2ccc(O)cc2)cc1` gave a pEC50 in [2] of 5.40. Besides, the pIC50 in [3] was 6.60; in [4], 6.00.

Compound `O=S(=O)(Nc1ccc(CCNC[C@H](O)COc2ccc(O)cc2)cc1)c1ccccc1Cl` registered an Activity in experiment [9] of 2%. The compound also showed a pEC50 in [2] of 7.27. The figures for the pIC50 in experiment [3] and in experiment [4] were 7.00 and 6.21, respectively.

As for `O=S(=O)(Nc1ccc(CCNC[C@H](O)COc2ccc(O)cc2)cc1)C1CCCCC1`, the pEC50 in [1] is 5.92; in experiment [2], 5.82. Moreover, the negative-log IC50 (pIC50) in experiment [3] is 5.52; in [4], 5.70.

For `CS(=O)(=O)Nc1ccc(CCNC[C@H](O)COc2ccc(O)cc2)cc1`, the pEC50 in [2] is 6.96. Moreover, the values for the negative logarithm of the IC50 (pIC50) in experiment [3] and in experiment [4] were 6.66 and 6.08, respectively.

`O=S(=O)(CCc1ccccc1)Nc1ccc(CCNC[C@H](O)COc2ccc(O)cc2)cc1` had a negative logarithm of the EC50 (pEC50) in experiment [2] of 8.23. Also, the pIC50 was 6.92 in [3] and 6.96 in experiment [4].

Compound `O=S(=O)(Nc1ccc(CCNC[C@H](O)COc2ccc(O)cc2)cc1)c1ccccc1` gave a pEC50 in [2] of 8.20. For the same compound, the pIC50 in experiment [3] was 6.72; in experiment [4], 6.74.

For `Cc1ccc(S(=O)(=O)Nc2ccc(CCNC[C@H](O)COc3ccc(O)cc3)cc2)cc1`, the negative logarithm of the EC50 (pEC50) in experiment [2] was 8.59. Besides, the pIC50 is 6.82 in [6] and 6.77 in [3].

In [2], `C[C@@H](Cc1ccc(O)cc1)NC[C@H](O)COc1ccc(O)cc1` showed a negative-log EC50 (pEC50) of 7.60. The pIC50 in experiment [3] was 7.08; in [4] it was 7.09.

Compound `CC(C)S(=O)(=O)Nc1ccc(CCNC[C@H](O)COc2ccc(O)cc2)cc1` showed a pEC50 in experiment [2] of 7.60. Also, the negative-log IC50 (pIC50) was 7.24 in experiment [3] and 7.00 in experiment [4].

With `O=S(=O)(Nc1ccc(CCNC[C@H](O)COc2ccc(O)cc2)cc1)c1ccc(Cl)c(Cl)c1`, the pEC50 in [2] is 7.24. For the same compound, the negative logarithm of the IC50 (pIC50) in experiment [3] is 5.52; in [4], less than 5.00.

Turning to `CCCS(=O)(=O)Nc1ccc(CCNC[C@H](O)COc2ccc(O)cc2)cc1`, the pEC50 in experiment [2] was 7.22. In [10], this compound showed a Max stimulation of 4%. In addition, the pIC50 is 6.30 in [3] and 6.00 in experiment [4].

By pIC50 is commonly meant the IC50 on a negative log10 scale, so that one unit is a factor of ten. The term pEC50 denotes the EC50 on a negative log10 scale, so that one unit is a factor of ten. The low end stands for a large EC50, the high end for a small EC50.

Values taken from ChEMBL document CHEMBL1130810, “Potent, selective benzenesulfonamide agonists of the human beta 3 adrenergic receptor” (Bioorg Med Chem Lett, 1998).
